From US9987296B2, “Compositions including anthocyanin or anthocyanidin for the prevention or treatment of Articular cartilage-associated conditions” (priority 2008, dated 2018)
“Also recorded” adds a separate entry of the source.

Legend:
[1] = system: bovine cartilage explants; test: Matrix synthesis (35S uptake) in bovine cartilage explants; type: cell-based
Protocol: Bovine cartilage explants (full thickness, 6 mm in diameter) were harvested from fresh femoral condyles. Human osteochondral plugs were harvested using 6 mm osteochondral grafting donor tool (Arthrez 1981-06S, Naples, Fla.) from femoral condyles retrieved from total knee arthroplasty surgery that had been stored in DMEM at 20 degrees C. for less than 24 hours. Full-thickness cartilage explants were cut from the subchondral bone. Each of the 6 mm cartilage disks were divided into 4 equal quadrants. Each quadrant was placed in a different experimental group. This allowed for a paired comparison and controlled for differences in grade of arthritis, thickness of cartilage, cell density, etc. The explants were washed 4-5 times with DMEM with 10% calf serum and were allowed to stabilize for 24 hours in a tissue culture incubator. Explants were then serum starved (0.1% calf serum) for 24 hours prior to commencement of cyanidin chloride treatment.
3 mL fresh media with 20 uCi/mL of ^35S-labeled sodium sulfate (NEX0414 Perkin Elmer, Boston, Mass.) (DMEM with 10% CS) was added to each of the explants along with 30 uL of 50 mM stock cyanidin chloride (MW 322.7 g/mole) solution (diluted in DMSO) (Chromadex Inc., Irvine, Calif.) to give the final cyanidin chloride concentration of (200 or 500 uM) in culture. Explants were subjected to cyanidin chloride treatment for 48 hours.
Radioactive media was aspirated after 48 hours and explants were washed in ice-cold 1×PBS for 10 minutes×3. Each cartilage explant quadrant was blotted dry and was placed in 500 uL of 2 mg/mL Proteinase K (Fisher Scientific, Fair Lawn, N.J.) in TE Buffer solution (10 mM Tris, 1 mM EDTA) and was allowed to rotate at 57 degrees C. for 24 hours in a hybridization oven until completely dissolved. Quantification of ^35S-labeled proteoglycans complexed to alcian blue by rapid filtration in multiwall plates was adopted and modified from Masuda et al Anal. Biochem 1994; 217:167-75. 75 uL of dilution buffer (50 mM Sodium Acetate pH^− 5.8. 0.5% Triton X-100) was added to each well of a 96 well plate (Millipore Multiscreen 96-well filtration system, Millipore, Billerica, Mass.) 25 uL of each digested cartilage explant sample was then loaded followed by 150 uL of 0.2% alcian blue solution (Alcian Blue 8GX electrophoresis grade, Sigma-Aldrich Inc., St. Louis Mo.) and was allowed to rotate for 1 hour at room temperature. The 96-well plate was then placed over a vacuum-manifold to aspirate the contents of the wells through the screen. The 3×200 uL vacuum washes with wash buffer (50 mM sodium acetate pI-I 5.8, 100 mM sodium sulfate, 50 mM MgCl2) were then performed. The 96-well filtration plate was then completely dried at 57 degrees C. for 5 minutes in a hybridization oven and was exposed to storage phosphor screen for 24 hours (Packard Instrument Company Inc., Meriden. Conn.). Phosphorimaging with Cyclone model A431200 (Packard Instrument Company Inc. Meriden, Conn.) was performed to quantify ^35S uptake by proteoglycans. ^35S uptake by proteoglycans in cartilage explants was normalized to DNA by Quant-iT ds DNA Assay Kit (Invitrogen Inc., Carlsbad Calif.).
The effect of cyanidin on bovine cartilage explants was tested. The dose response was also determined. Cartilage explants were treated with 1L-1 (50 ng/mL) for 24 hours. IL-1 reduces matrix synthesis and induces an inflammatory respond similar to osteoarthritis. Explants were then treated with cyanidin chloride at either 200 or 500 uM concentration for 24 hours. Matrix synthesis was monitored by measuring uptake of ^35S.
Bovine explants were initially subjected to IL-1 treatment for 24 hours. Explants were then treated with 500 uM cyanidin chloride in a low glucose (1 g/L) or high glucose concentration (4.5 g/L). […] The higher the glucose concentration increased matrix synthesis by 10%. The cyanidin treatment had small effect under low glucose conditions, but the effect was nearly 20% greater in the high glucose condition.

IGF-1 = IGF-1 production by ELISA, human cartilage explants; type: cell-based; conditions: for IGF-1 production compared to IL-1 alone: human cartilage explants, 5 or 50 ug/mL (FIGS. 7, 8)
Protocol: Full thickness cartilage slices (20-25 mg) were dissected from the cartilage using a sterile scalpel blade. Four to five cartilage pieces that were approximately equal in size and weight were transferred to each well of a 24-well, flat bottom plate (Nuns, Denmark) containing DMEM:F12 (1:1) supplemented with antibiotics and 10% FCS and cultured for 24 hours. Subsequently the cartilage explants were cultured overnight in serum free media. The cartilage explants were treated with IL-β alone or with IL-β positive test agents for 72 hours in serum free media. Explants cultured in the absence of IL-β or test agents were used as controls. Additionally, the actions of kuromanin or cyanidin chloride were examined independently of IL-β exposure (5 ng/mL). Where appropriate, explants were exposed to test agents 15 minutes prior to the treatment with IL-β. Total glycosaminoglycan present in the culture supernatant was estimated as described below.
Human IGF-1 label in chondrocytes culture or cartilage explant media was quantified using a commercially available Human IGF-1 ELISA kit (R& D Systems) per manufacturer's directions.

[2] = system: bovine cartilage explants; test: Matrix synthesis (35S uptake) in bovine cartilage explants; type: cell-based; remark: listed apart in the source
[3] = cited from earlier work
[4] = system: rodent pancreatic beta-cells; conditions: in culture, with 4 and 10 mM glucose; cited from earlier work
bovine chondrocytes = test: Matrix synthesis rate (35S) of bovine chondrocytes in alginate beads; type: cell-based; conditions: 100 uM with TGF-β 10 ng/mL, 24 hours
Protocol: Chondrocytes were isolated from weight-bearing regions of young (18-30 months old) bovine femoral condyles. Primary cells were obtained from 3 different animals and suspended in beads of 2% alginate. The alginate beads were precultured in DMEM supplemented with 10% calf serum for 48 hours. Before the experiments, the chondrocytes were serum-starved overnight with 0.1% serum to reduce the effect of serum and to reduce anabolic activity to baseline.
For each treatment condition, 10 millicuries of ^35S was added to each well and incubated for the appropriate duration. At the appropriate harvest time point, each well was then washed extensively with PBS (5-6 times with 500 uL, of PBS), before trypsin and EDTA was added to dissolve alginate. After 20-30 minutes, the dissolved gels and released cells were transferred into 1.5 ml Eppendorf tubes with 150 uL, of calf serum (to promote pellet formation) and the cells were centrifuged at 2000 rpm for 5 minutes. The supernatant was removed via pipette without disturbing the cell pellet. The remaining cell and supernatant (approximately 300 ul) was then mixed with 500 uL of PBS and transferred to scintillation vials, to which 5 ml of scintillation fluid was dispensed. Each scintillation vial was capped, thoroughly vortexed and then placed in a gamma counter to measure gamma radiation emission for each sample. Each sample was measured for 5 minutes.

TGF-β = TGF-β by ELISA after exposure of fibroblast cells to dextrose; type: cell-based; conditions: fibroblasts
Protocol: (§1) For completeness, the relationship between a saccharide (dextrose) and TGF-β was also examined. Fibroblasts were treated with varying amounts of dextrose and measured for the release of TGF-β. […] It appeared that 0.5% glucose provided the greatest proliferation of fibroblasts.

fibroblast cells = test: Fibroblast cell proliferation; type: cell-based; conditions: for cell proliferation: fibroblasts
Protocol: as §1

Q: Which “effect on matrix synthesis, greater in high glucose than in low glucose” value ([1]; 500 uM, high glucose (4.5 g/L), after IL-1) does the source give for Oc1cc(O)c2cc(O)c(-c3ccc(O)c(O)c3)[o+]c2c1 [Cyanidin chloride] here?
A: The value was about 20%.

Q: And the “effect on matrix synthesis” value ([1]; 500 uM, low glucose (1 g/L), after IL-1)?
A: Its value is “small effect”.

Q: What about the “matrix synthesis (35S uptake)” value ([1]; IL-1 50 ng/mL 24 hours, then 200 or 500 uM for 24 hours, listed as Cyanidin) of the same compound?
A: Its value is “inconsistent effect”.

Q: And the “matrix synthesis (35S uptake)” value ([1]; IL-1 50 ng/mL 24 hours, then 200 or 500 uM for 24 hours, listed as cyanidin)?
A: Its value is “Initially a dose response was identified but difficult to reproduce”.

Q: What about the “matrix synthesis (35S uptake)” value ([1]; IL-1 50 ng/mL 24 hours, then 200 or 500 uM for 24 hours, listed as cyanidin chloride) of the same compound?
A: Its value is “we could not reproduce this effect in several subsequent experiments”.

Q: What about the “matrix synthesis (35S uptake)” value ([1]; after IL-1, 500 uM combined with high glucose (4.5 g/L)) of the same compound?
A: Its value is “significantly induce chondroreparative activity; also recorded: increased matrix synthesis the most”.

Q: And the IGF-1 production (IGF-1; explants, IL-1 with high dose 50 ug/mL)?
A: Its IGF-1 production is “no benefit was observed”.

Q: And the IGF-1 production (IGF-1; explants, IL-1 with low dose 5 ug/mL)?
A: Its IGF-1 production is “restoration of control IGF-1 production”.

Q: And the “basal IGF-1 production” value (IGF-1; explants, high dose alone)?
A: Its value is “did not express basal IGF-1 production”.

Q: And the “IGF-1 production compared to IL-1 alone” value (IGF-1)?
A: Its value is “increased; also recorded: greater than IL-1 alone when treated with cyanidin alone or in combination with IL-1”.

Q: What about the “chondroprotective activity, greater than under low glucose” value ([2]; higher glucose conditions (5%) as printed) of the same compound?
A: Its value is about 20%.

Q: And the chondroprotective activity ([2]; low glucose levels (2.5%) as printed)?
A: The chondroprotective activity was “some chondroprotective activity”.

Q: Which half-life [3] does the source give for OC[C@H]1O[C@@H](Oc2cc3c(O)cc(O)cc3[o+]c2-c2ccc(O)c(O)c2)[C@H](O)[C@@H](O)[C@@H]1O.[Cl-] [Kuromanin chloride] here?
A: The half-life was 1.5 to 2 h.

Q: What about the “IGF-1 production compared to IL-1 alone” value (IGF-1) of the same compound?
A: The value was “increased; also recorded: greater than IL-1 alone when treated with kuromanin alone or in combination with IL-1”.

Q: And the insulin secretion [4]?
A: The insulin secretion was “stimulate insulin secretion”.

Q: What about the “matrix synthesis rates (growth factor synergy)” value (bovine chondrocytes) of the same compound?
A: Its value is “synergistic effect on matrix synthesis rates”.

Q: For O=C[C@H](O)[C@@H](O)[C@H](O)[C@H](O)CO [glucose], which “increase of matrix synthesis” value ([1]; higher glucose concentration (4.5 g/L vs 1 g/L), after IL-1) is on record?
A: Its value is 10%.

Q: And the “presence of TGF-β” value (TGF-β; higher amounts of glucose)?
A: The value was “decreased the presence of TGF-β”.

Q: What about the TGF-β expression (TGF-β; varying amounts of dextrose) of the same compound?
A: Its TGF-β expression is “does not increase TGF-β expression”.

Q: And the “concentration providing the greatest proliferation of fibroblasts” value (fibroblast cells)?
A: The value was 0.5%.

Q: And the cell proliferation (fibroblast cells; higher concentrations of glucose)?
A: The cell proliferation was “did not”.

Q: What about the cell proliferation (fibroblast cells; lower concentrations of glucose) of the same compound?
A: The cell proliferation was “increased cell proliferation”.
